Assay results: patent US11141455B2, “Peptide analogues with branched amino acid probe(s)” (priority 2014, dated 2021)
Where a SMILES comes first, the peptide text is derived from it.

Key:
[1] = molecular target: T1, MC3r (Homo sapiens, UniProt P41968); assay: Radioligand binding, displacement of 125I-NDP-αMSH (Cerep); details: Example 2, α-MSH analogues
T1 construct: 0959 (cAMP); host or cells: CHO cells
Experimental: Murine B16-F1 cells expressing MCr1 are used for determination of binding affinity to and agonist activity against the MC1r. Human recombinant CHO cells expressing MC3r, MC4r or MC5r are used for determination of affinity to or agonist activity against the MC3r, MC4r and MC5r, respectively. […] The test items are tested in a concentration range of 10^−13 to 10^−5M.

[2] = molecular target: T2, human GLP-1 receptor (Homo sapiens, UniProt P43220); assay: cAMP production (HTRF) in CHO-K1 cells expressing GLP-1 receptor; assay type: cell-based; details: CHO-K1; read-out: Max efficacy in % of control peptide
T2 construct: expressed in transfected cells; host or cells: CHO-K1 cells
T2 sequence (P43220 24-463): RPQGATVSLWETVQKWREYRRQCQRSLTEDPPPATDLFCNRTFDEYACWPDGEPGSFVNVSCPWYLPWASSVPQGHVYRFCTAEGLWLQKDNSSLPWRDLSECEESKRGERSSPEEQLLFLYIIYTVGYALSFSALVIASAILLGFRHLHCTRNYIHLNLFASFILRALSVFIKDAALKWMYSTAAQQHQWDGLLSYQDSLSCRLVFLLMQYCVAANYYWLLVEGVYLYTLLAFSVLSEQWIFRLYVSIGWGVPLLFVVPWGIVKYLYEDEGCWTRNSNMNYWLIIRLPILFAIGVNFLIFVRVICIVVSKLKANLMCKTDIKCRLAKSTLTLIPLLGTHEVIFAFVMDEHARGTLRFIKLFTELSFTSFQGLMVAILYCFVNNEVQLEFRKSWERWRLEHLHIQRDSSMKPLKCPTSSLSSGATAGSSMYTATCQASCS

[3] = molecular target: T3, recombinant human type 2 Formyl peptide receptor (FPR2) (Homo sapiens, UniProt P25090); assay: Aequorin light emission agonist assay in recombinant FPR2 cells; assay type: cell-based; details: at the highest tested dose; read-out: maximal agonist activity, % of max response of internal control Trp-Lys-Tyr-Met-Val-Met
T3 construct: expressed in transfected cells
T3 sequence (P25090 1-351): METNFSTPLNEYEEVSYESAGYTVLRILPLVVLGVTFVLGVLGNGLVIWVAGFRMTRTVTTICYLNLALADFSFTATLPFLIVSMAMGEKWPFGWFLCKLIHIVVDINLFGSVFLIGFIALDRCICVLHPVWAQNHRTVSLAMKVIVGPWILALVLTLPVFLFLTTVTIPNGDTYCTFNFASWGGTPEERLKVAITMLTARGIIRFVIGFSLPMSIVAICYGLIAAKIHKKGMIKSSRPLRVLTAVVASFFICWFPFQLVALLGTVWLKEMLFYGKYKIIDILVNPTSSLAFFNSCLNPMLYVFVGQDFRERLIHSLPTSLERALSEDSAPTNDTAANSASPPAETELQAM
Experimental: Recombinant cells co-expressing mitochondrial apoaequirin and recombinant human type 2 Formyl peptide receptor (FPR2) were grown for 18 hours prior to testing in media without antibiotics were detached by gentle flushing with PBS-EDTA (5 mM EDTA), recovered by centrifugation and re-suspended in assay buffer (DHEM/HAM's F12 with HEPES and 0.1% protease free BSA). Cells were then incubated for at least 4 hours at room temperature coelenterazine h (from Molecular Probes) before DR studies were conducted.
50 μl of cell suspension was injected on 50 μl of the test or control compound (solubilized in PBS/0.5% BSA and finally diluted from a stock solution of 1 mM) at increasing concentrations in 96 wells plates and then incubated 30 min at room temperature. The resulting light emission was recorded using the Hamamatsu functional drug Screening system 6000 (FDSS6000). For standardization of emission of recorded light across plates and between experiments 100 μM digitonin or 20 μM ATP were added to some of the wells.
The test compounds were tested in a concentration range from 10^−11 to 10^−5M
Data is presented as mean values.

T1 sequence (P41968 whole entry): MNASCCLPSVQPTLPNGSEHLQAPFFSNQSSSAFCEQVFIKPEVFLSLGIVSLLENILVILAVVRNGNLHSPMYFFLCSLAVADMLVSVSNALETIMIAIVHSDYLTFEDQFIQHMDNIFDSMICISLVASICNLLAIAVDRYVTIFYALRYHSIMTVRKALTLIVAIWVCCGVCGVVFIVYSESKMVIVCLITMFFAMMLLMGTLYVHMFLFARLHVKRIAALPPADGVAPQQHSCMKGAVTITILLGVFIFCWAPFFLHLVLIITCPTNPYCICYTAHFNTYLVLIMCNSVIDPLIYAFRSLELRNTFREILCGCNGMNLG

Ki [1]	Emax [2]	Emax [3]	Compound
24 nM	101%		CSCC[C@H](NC(=O)[C@H](CO)NC(=O)[C@H](Cc1ccc(O)cc1)NC(=O)[C@H](CO)NC(=O)[C@H](CCCCNC(=O)[C@H](CCCCN)NC(=O)[C@H](CCCCN)NC(C)=O)NC(C)=O)C(=O)N[C@@H](CCC(=O)O)C(=O)N[C@@H](Cc1c[nH]cn1)C(=O)N[C@@H](Cc1ccccc1)C(=O)N[C@@H](CCCNC(=N)N)C(=O)N[C@@H](Cc1c[nH]c2ccccc12)C(=O)NCC(=O)N[C@@H](CCCCN)C(=O)N1CCC[C@H]1C(=O)N[C@H](C(N)=O)C(C)C [Analogue 1]
		85%	CSCC[C@H](NC(=O)[C@H](C)NC(C)=O)C(=O)N[C@H](C(=O)N[C@@H](CO)C(=O)N[C@@H](CCC(=O)O)C(=O)N[C@@H](Cc1ccccc1)C(=O)N[C@@H](CC(C)C)C(=O)N[C@@H](CCCCNC(=O)[C@H](CCCCN)NC(=O)[C@H](CCCCNC(=O)[C@H](CCCCN)NC(C)=O)NC(C)=O)C(=O)N[C@@H](CCC(N)=O)C(=O)N[C@@H](C)C(=O)N[C@@H](Cc1c[nH]c2ccccc12)C(N)=O)C(C)C [analogue 7] (HELM PEPTIDE1{[ac].A.M.V.S.E.F.L.K.Q.A.W.[am]}|PEPTIDE2{[CC(=O)N[C@@H](CCCCN)C(=O)NCCCC[C@H](NC(C)=O)C(=O)[*:2]].K}$PEPTIDE1,PEPTIDE2,9:R3-2:R2$$$V2.0)
